Series [1] relates to rat. The conditions noted are these: Combined chronic toxicity/carcinogenicity, sprague dawley, Oral, Feed, dose end: 24 month, group: systemic.
For series [2], the system named is rat. The conditions noted are these: Prenatal developmental toxicity study, sprague dawley, Oral, Gavage/Intubation, dose end: 15 GD.
Series [3] relates to rat. The following applies: Subchronic oral toxicity in rodents, sprague dawley, Feed, dose end: 13 week, group: systemic.
The test system of another series is mouse. The conditions noted are these: Carcinogenicity, cd1, Oral, Feed, dose end: 78 week, group: systemic.
Where [4] appears, read: group: developmental, developmental / developmental malformation / bone / incomplete ossification + developmental / developmental malformation / bone / split ….
Where [5] appears, read: group: maternal, systemic / in life observation / body weight / body weight gain + systemic / in life observation / clinical signs / salivation + ….
The mark [6] stands for this setting: systemic / in life observation / food consumption / food consumption.
Where [7] appears, read: systemic / in life observation / food consumption / food consumption + systemic / clinical chemistry / cholesterol / cholesterol + systemic….

The structures appear in SMILES notation.

For the molecule `CCSC(C)CC1CC(=O)C(C(CC)=NOC/C=C/Cl)=C(O)C1` (stereo not given) [Clethodim], the no-observed-adverse-effect level (NOAEL) was determined as 19 mg/kg/day with rat [1] (systemic / in life observation / body weight / body weight gain + systemic / organ weight / liver / absolute + systemic / pathology …); 100 mg/kg/day in the series with rat [2] (setting [4]); 100 mg/kg/day with rat [2] (setting [5]); 2.3 mg/kg/day with rat [3] (setting [7]); 30 mg/kg/day in the series with mouse (systemic / pathology microscopic / liver / hypertrophy + systemic / pathology microscopic / liver / adenoma + systemic / hematology / …). In addition, the LOAEL in the series on rat [1] (systemic / in life observation / body weight / body weight gain + systemic / organ weight / liver / relative to body weight + systemic / …) was 100 mg/kg/day; in the series on rat [2] (setting [4]), 350 mg/kg/day; in the series on rat [2] (group: maternal, systemic / in life observation / body weight / body weight gain + systemic / in life observation / clinical signs / salivation), 350 mg/kg/day; in the series with rat [3] (setting [6]), 25 mg/kg/day; in the series on mouse (systemic / pathology microscopic / liver / hypertrophy + systemic / organ weight / liver / relative to body weight + systemic / organ weight…), 150 mg/kg/day. Besides, the LEL worked out at 0.64 mg/kg/day with rat [1] (systemic / pathology microscopic / bone marrow / hypocellularity); 100 mg/kg/day with rat [2] (group: developmental, developmental / developmental malformation / bone / absent + developmental / developmental malformation / mouth / jaw / maxillary …); 350 mg/kg/day with rat [2] (group: maternal, systemic / in life observation / body weight / body weight gain + systemic / in life observation / clinical signs / salivation + systemic / …); 25 mg/kg/day in the series with rat [3] (setting [6]); 30 mg/kg/day in the series on mouse (systemic / pathology microscopic / liver / adenoma + systemic / pathology microscopic / lung / adenoma + systemic / hematology / erythrocyte…). In addition, the NEL with rat [1] (systemic / pathology microscopic / bone marrow / hypocellularity + systemic / in life observation / body weight / body weight + systemic / …) worked out at 0.18 mg/kg/day; in the series on rat [2] (setting [4]), 10 mg/kg/day; in the series with rat [2] (setting [5]), 100 mg/kg/day; in the series with rat [3] (setting [7]) it was 2.3 mg/kg/day; in the series on mouse (systemic / pathology microscopic / liver / adenoma + systemic / pathology microscopic / lung / adenoma + systemic / pathology microscopic / …), 3 mg/kg/day.

These data come from EPA's ToxRefDB 2.
